We go through 19 molecules from PMC7997579, “Synthetic Lethality in Pancreatic Cancer: Discovery of a New RAD51-BRCA2 Small Molecule Disruptor That Inhibits Homologous Recombination and Synergizes with Olaparib” (Journal of Medicinal Chemistry, 2020).

Read-outs that look alike come from different tables or passages of the source.

For one experiment, the target named is T1, BRC4–RAD51 interaction (Homo sapiens, UniProt Q06609).
T1 construct: purchased Creative Biomart (RAD51); Life Technologies (BRC4 peptide)
T1 sequence (Q06609 1-339): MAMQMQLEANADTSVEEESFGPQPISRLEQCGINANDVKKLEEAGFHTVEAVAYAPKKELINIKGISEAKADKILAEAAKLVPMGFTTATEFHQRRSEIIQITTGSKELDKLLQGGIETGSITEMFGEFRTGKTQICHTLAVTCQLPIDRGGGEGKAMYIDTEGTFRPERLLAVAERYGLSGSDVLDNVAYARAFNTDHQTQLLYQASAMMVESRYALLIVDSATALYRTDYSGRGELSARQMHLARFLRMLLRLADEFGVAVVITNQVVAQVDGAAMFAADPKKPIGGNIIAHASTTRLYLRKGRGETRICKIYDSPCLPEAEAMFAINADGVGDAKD
Briefly: Competitive biochemical ELISA assay (biotinylated BRC4 peptide vs RAD51). It counts as binding. How it is done:
To investigate the mechanism of action of the new dihydroquinolone pyrazoline derivatives, different biological assays were performed. As a primary screening, the ability of compounds 5d–57d to inhibit RAD51-BRCA2 interaction was investigated with a competitive biochemical ELISA assay against the parent compound 4d (Table 1). This assay is effective in evaluating the ability of new molecules to compete with BRC4 to bind to RAD51.[30] […] 18d–21d, 23d, 25d, 30d, and 31d were active at micromolar range, all very similar to the initial hit. […] The replacement of the aromatic ring A in combination with the substitution of the pyrazoline nitrogen with either propionyl or acetyl chain yielded compounds 33d–51d. […] As expected for PPI disruptors, the SARs of the new series of dihydroquinolone pyrazoline were rather complex to rationalize, with many cliffs and spikes that were difficult to understand. […] Accordingly, 4d, 12d, 18d, 20d–23d, 30d, 31d, 33d–36d, 39d, 45d, and 49d were submitted to cell-based study (Table 2).
Competitive ELISA screening assay using biotinylated BRC4 peptide to disrupt the BRC4–RAD51 interaction was performed by modifying the method described by Rajendra et al.[33] BRC4-biotinylated peptide (N-term biotin-[…] from Life Technologies) was used to coat 384-well plates (Nunc). After washing with PBS containing 0.05% Tween-20 (PBST) and blocking with the solution BSA 1% /PBST, overnight hybridization with human RAD51 protein (NP_002866 Creative Biomart, NY) was performed. Test compounds were added in dose response from 0.01 to 100 μM in triplicate with constant DMSO 1%. Antibody raised against RAD51 (Millipore) and HRP-secondary antibody staining to develop the 3,3′,5,5′-tetramethylbenzidine signal (Sigma) quenched with 1 M HCl was used as the assay readout. Colorimetric measure was read on a Victor5 (PerkinElmer) plate reader. BRC4 and Rad51 were included in the assay as positive control. Results were analyzed by using GraphPad software.
(ELISA stands for enzyme-linked immunosorbent assay.)

Experiment [1] has as its system homologous recombination in BxPC3 cells. In words: Homologous recombination assay (two-plasmid recombination, real-time PCR). It counts as cell-based, human. Particulars: BxPC3; one or two doses in the range of the ELISA EC50; NDD = not dose-dependent. From the text: Our working hypothesis is that compounds disrupting RAD51-BRCA2 interaction should affect HR repair and increase the efficacy of PARPi in treating breast, ovarian, and pancreatic cancer. For its clinical relevance, pancreatic adenocarcinoma was selected as our final model for cell-based experiments, and BxPC3 cells were selected for a straightforward comparison with the previously reported triazole derivatives.[30],[31] BxPC3 is derived from a human adenocarcinoma that expresses fully functional BRCA2.[38] As shown in Table 2 and according to the rationale of our hypothesis, our preliminary screening consisted of verifying the efficacy of compounds in inhibiting cell HR and/or in increasing the antiproliferative effect of olaparib. […] HR activity was assessed by evaluating the recombination rate between two transfected plasmids, using a commercially available assay. […] As for the emissucinic acid-containing compounds (4d, 12d, 18d, 20d–23d, 30d, 31d), one of the reasons for their lower potency in cells might be the general poor permeability, likely related to the ionizable acid moiety. […] We then characterized 35d in additional biophysical and cell-based experiments.
Homologous recombination (HR) was assessed by using a commercially available assay (Norgen). This assay is based on cell transfection with two plasmids that, upon cell entry, recombine. The efficiency of HR can be assessed by real-time PCR, using primer mixtures included in the assay kit. Different primer mixtures allow one to discriminate between the original plasmid backbones and their recombination product.
BxPC3 cells (2 × 10^5 per well) were seeded in a 24-well plate and allowed to adhere overnight. Co-transfection with the two plasmids was performed in Lipofectamine 2000 (Invitrogen) according to the manufacturer’s instructions. During transfection (5 h), cells were exposed to different doses of RAD51-BRCA2 disruptors, dissolved in RPMI in the presence of 0.6% DMSO. After washing with PBS, cells were harvested, and DNA was isolated using Illustra Tissue and Cell Genomic Prep Mini Spin kit (GE Healthcare). Sample concentration was measured using an ONDA Nano Genius photometer. The efficiency of HR was assessed by real-time PCR, using 25 ng of template, the primer mixtures included in the assay kit and following the protocol indicated by the manufacturer. Data analysis was based on the ΔΔCt method: [recombination product/backbone plasmids]^treated versus [recombination product/backbone plasmids]^control.
Background: In qPCR the cycle at which signal appears reflects the starting amount.

Where [2] appears, read: competition with BRC4 for RAD51, triplicate, ± standard deviation, NA = not active, racemic mixtures unless enantiomer named, read-out: EC50 (μM) on ELISA assay.
The mark [3] stands for this setting: competition with BRC4 for RAD51, triplicate, ± standard deviation, NA = not active, racemic mixtures unless enantiomer named.

One may read the EC50 as the concentration needed to bring the measured effect to its halfway point.

On to `CCn1ncc2cc(C3CC(c4c(-c5ccccc5)c5cc(Cl)ccc5[nH]c4=O)=NN3C(C)=O)ccc21` (stereo not drawn) [Compound 47d, 3-(1-Acetyl-5-(1-ethyl-1H-indazol-5-yl)-4,5-dihydro-1H-pyrazol-3-yl)-6-chloro-4-phenylquinolin-2(1H)-one], for which, on BRC4–RAD51 interaction (setting [2]), the concentration giving a half-maximal response (EC50) worked out at 40 ± 3 µM. The same measure, in the same setting: the result for `CCCn1cc(-c2ccc(C3CC(c4c(-c5ccccc5)c5cc(Cl)ccc5[nH]c4=O)=NN3C(=O)CCC(=O)O)cc2)cn1` (stereo not drawn) [Compound 32d, 4-(3-(6-Chloro-2-oxo-4-phenyl-1,2-dihydroquinolin-3-yl)-5-(4-(1-propyl-1H-pyrazol-4-yl)phenyl)-4,5-dihydro-1H-pyrazol-1-yl)-4-oxobutanoic Acid] reads 65 ± 5 µM.

Take `CC(=O)N1N=C(c2c(-c3ccccc3)c3cc(Cl)ccc3[nH]c2=O)CC1c1ccc(C(C)(C)C)cc1` (stereo not drawn) [Compound 39d, 3-(1-Acetyl-5-(4-(tert-butyl)phenyl)-4,5-dihydro-1H-pyrazol-3-yl)-6-chloro-4-phenylquinolin-2(1H)-one]: the “HR inhibition (in words)” value in experiment [1] is listed as “HR inhibition = NDD ^b”. Further, the EC50 on BRC4–RAD51 interaction (Table 2, compounds selected for cell-based study, read-out: EC50 ELISA) stood at 15 ± 4 µM; at BRC4–RAD51 interaction (setting [2]) it was 15 ± 4 µM. `CC(=O)N1N=C(c2c(-c3ccccc3)c3cc(Cl)ccc3[nH]c2=O)CC1c1ccc(Br)cc1` (stereo not drawn) [Compound 37d, 3-(1-Acetyl-5-(4-bromophenyl)-4,5-dihydro-1H-pyrazol-3-yl)-6-chloro-4-phenylquinolin-2(1H)-one]: the EC50 on BRC4–RAD51 interaction (setting [2]) is 38 ± 7 µM. As for `CCC(=O)N1N=C(c2c(-c3ccccc3)c3cc(Cl)ccc3[nH]c2=O)CC1c1ccc(F)cc1` (stereo not drawn) [Compound 6d, 6-Chloro-3-(5-(4-fluorophenyl)-1-propionyl-4,5-dihydro-1H-pyrazol-3-yl)-4-phenylquinolin-2(1H)-one], the half-maximal effective concentration (EC50) on BRC4–RAD51 interaction (setting [2]) was 34 ± 3 µM. Consider `CC(=O)N1N=C(c2c(-c3ccccc3)c3cc(Cl)ccc3[nH]c2=O)CC1c1ccc(F)cc1` (stereo not drawn) [Compound 5d, 3-(1-Acetyl-5-(4-fluorophenyl)-4,5-dihydro-1H-pyrazol-3-yl)-6-chloro-4-phenylquinolin-2(1H)-one], for which the concentration for a half-maximal effect (EC50) on BRC4–RAD51 interaction (setting [2]) worked out at 50 ± 10 µM. For the molecule `O=C(O)CCC(=O)N1N=C(c2c(-c3ccccc3)c3cc(Cl)ccc3[nH]c2=O)CC1c1ccc(C(F)(F)F)cc1` (stereo not drawn) [Compound 16d, 4-(3-(6-Chloro-2-oxo-4-phenyl-1,2-dihydroquinolin-3-yl)-5-(4-(trifluoromethyl)phenyl)-4,5-dihydro-1H-pyrazol-1-yl)-4-oxobutanoic Acid], the half-maximal effective concentration (EC50) at BRC4–RAD51 interaction (setting [2]) was found to be 29 ± 2 µM. The same measure, in the same setting: in the case of `CCn1ccc2cc(C3CC(c4c(-c5ccccc5)c5cc(Cl)ccc5[nH]c4=O)=NN3C(C)=O)ccc21` (stereo not drawn) [Compound 46d, 3-(1-Acetyl-5-(1-ethyl-1H-indol-5-yl)-4,5-dihydro-1H-pyrazol-3-yl)-6-chloro-4-phenylquinolin-2(1H)-one] it was 50 ± 15 µM; in that of `COc1ccc(-c2ccc(C3CC(c4c(-c5ccccc5)c5cc(Cl)ccc5[nH]c4=O)=NN3C(C)=O)cc2)cc1` (stereo not drawn) [Compound 44d, 3-(1-Acetyl-5-(4′-methoxy-[1,1′-biphenyl]-4-yl)-4,5-dihydro-1H-pyrazol-3-yl)-6-chloro-4-phenylquinolin-2(1H)-one], 70 ± 6 µM; in that of `O=C(O)CCC(=O)N1N=C(c2c(-c3ccccc3)c3cc(Cl)ccc3[nH]c2=O)CC1c1ccc(Cl)cc1` (stereo not drawn) [Compound 11d, 4-(3-(6-Chloro-2-oxo-4-phenyl-1,2-dihydroquinolin-3-yl)-5-(4-chlorophenyl)-4,5-dihydro-1H-pyrazol-1-yl)-4-oxobutanoic Acid], 59 ± 8 µM. The same measure, in the same setting: in the case of `CC(=O)N1N=C(c2c(-c3ccccc3)c3cc(Cl)ccc3[nH]c2=O)CC1c1ccc(-c2ccc(Br)cc2)cc1` (stereo not drawn) [Compound 43d, 3-(1-Acetyl-5-(4′-bromo-[1,1′-biphenyl]-4-yl)-4,5-dihydro-1H-pyrazol-3-yl)-6-chloro-4-phenylquinolin-2(1H)-one] it was 70 ± 15 µM. As to `CCCn1cc(-c2ccc(C3CC(c4c(-c5ccccc5)c5cc(Cl)ccc5[nH]c4=O)=NN3C(C)=O)cc2)cn1` (stereo not drawn) [Compound 51d, 3-(1-Acetyl-5-(4-(1-propyl-1H-pyrazol-4-yl)phenyl)-4,5-dihydro-1H-pyrazol-3-yl)-6-chloro-4-phenylquinolin-2(1H)-one], the 50% effective concentration (EC50) at BRC4–RAD51 interaction (setting [2]) was found to be 46 ± 9 µM. For `O=C(O)CCC(=O)N1N=C(c2c(-c3ccccc3)c3cc(Cl)ccc3[nH]c2=O)CC1c1ccc(-c2ccc(Cl)cc2)cc1` (stereo not drawn) [Compound 19d, 4-(3-(6-Chloro-2-oxo-4-phenyl-1,2-dihydroquinolin-3-yl)-5-(4′-chloro-[1,1′-biphenyl]-4-yl)-4,5-dihydro-1H-pyrazol-1-yl)-4-oxobutanoic Acid], the concentration for a half-maximal effect (EC50) on BRC4–RAD51 interaction (setting [2]) was 25 ± 5 µM. Regarding `CCn1ncc2cc(C3CC(c4c(-c5ccccc5)c5cc(Cl)ccc5[nH]c4=O)=NN3C(=O)CCC(=O)O)ccc21` (stereo not drawn) [Compound 24d, 4-(3-(6-Chloro-2-oxo-4-phenyl-1,2-dihydroquinolin-3-yl)-5-(1-ethyl-1H-indazol-5-yl)-4,5-dihydro-1H-pyrazol-1-yl)-4-oxobutanoic Acid], the “EC50 (μM) on ELISA assay” value on BRC4–RAD51 interaction (setting [3]) is “inactive”.

Take `CCCn1cc2cc(C3CC(c4c(-c5ccccc5)c5cc(Cl)ccc5[nH]c4=O)=NN3C(C)=O)ccc2n1` (stereo not drawn) [Compound 50d, 3-(1-Acetyl-5-(2-propyl-2H-indazol-5-yl)-4,5-dihydro-1H-pyrazol-3-yl)-6-chloro-4-phenylquinolin-2(1H)-one]: at BRC4–RAD51 interaction (setting [3]), the “EC50 (μM) on ELISA assay” value is “inactive”. Still for that read-out and setting: in the case of `COc1ccc(C2CC(c3c(-c4ccccc4)c4cc(Cl)ccc4[nH]c3=O)=NN2C(C)=O)cc1` (stereo not drawn) [Compound 38d, 3-(1-Acetyl-5-(4-methoxyphenyl)-4,5-dihydro-1H-pyrazol-3-yl)-6-chloro-4-phenylquinolin-2(1H)-one] it was “inactive”. As for `CC(=O)N1N=C(c2c(-c3ccccc3)c3cc(Cl)ccc3[nH]c2=O)CC1c1ccc(-c2ccc(Cl)cc2)cc1` (stereo not drawn) [Compound 42d, 3-(1-Acetyl-5-(4′-chloro-[1,1′-biphenyl]-4-yl)-4,5-dihydro-1H-pyrazol-3-yl)-6-chloro-4-phenylquinolin-2(1H)-one], on BRC4–RAD51 interaction (setting [2]), the EC50 turned out to be 45 ± 8 µM. With `CCn1cc2cc(C3CC(c4c(-c5ccccc5)c5cc(Cl)ccc5[nH]c4=O)=NN3C(C)=O)ccc2n1` (stereo not drawn) [Compound 48d, 3-(1-Acetyl-5-(2-ethyl-2H-indazol-5-yl)-4,5-dihydro-1H-pyrazol-3-yl)-6-chloro-4-phenylquinolin-2(1H)-one], the “EC50 (μM) on ELISA assay” value at BRC4–RAD51 interaction (setting [3]) is “inactive”. In the case of `CCn1cc2cc(C3CC(c4c(-c5ccccc5)c5cc(Cl)ccc5[nH]c4=O)=NN3C(=O)CCC(=O)O)ccc2n1` (stereo not drawn) [Compound 25d, 4-(3-(6-Chloro-2-oxo-4-phenyl-1,2-dihydroquinolin-3-yl)-5-(2-ethyl-2H-indazol-5-yl)-4,5-dihydro-1H-pyrazol-1-yl)-4-oxobutanoic Acid], the EC50 on BRC4–RAD51 interaction (setting [2]) turned out to be 28 ± 4 µM.
